Legend:
MMP-3 (Stromelysin-1) = MMP-3 (Stromelysin-1) (Homo sapiens, UniProt P08254); assay: In vitro metalloprotease inhibition, MMP-3; assay type: biochemical
Description: (§1) Blank cells indicate lack of data only.

[1] = molecular target: T1, MMP-1 (Fibroblast collagenase) (Homo sapiens, UniProt P03956); assay: In vitro metalloprotease inhibition, MMP-1; assay type: biochemical
T1 sequence (P03956 100-469): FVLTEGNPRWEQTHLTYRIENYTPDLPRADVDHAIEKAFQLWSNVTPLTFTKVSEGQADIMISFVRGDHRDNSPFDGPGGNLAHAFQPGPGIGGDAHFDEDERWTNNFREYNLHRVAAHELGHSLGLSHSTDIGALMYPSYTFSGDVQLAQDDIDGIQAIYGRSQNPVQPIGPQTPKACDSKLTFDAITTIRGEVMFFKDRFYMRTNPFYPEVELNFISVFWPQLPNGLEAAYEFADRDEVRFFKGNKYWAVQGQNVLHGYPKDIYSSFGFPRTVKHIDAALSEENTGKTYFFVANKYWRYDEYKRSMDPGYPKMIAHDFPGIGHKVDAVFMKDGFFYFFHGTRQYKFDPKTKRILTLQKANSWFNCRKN
Description: as §1

[2] = test system: abdominal aorta of C57/B16 mice after elastase perfusion; assay: Elastase-perfusion mouse model of AAA; assay type: in vivo
Description: All mice used in the experiment were commercially obtained C57/B16 inbred strain mice. Throughout the experimental course, mice were allowed free access to food and water. Animals were housed in a controlled animal facility, and all mouse care and treatment occurred under approved protocols.
A total of 89 C57/B16 mice were subjected to transient perfusion of the abdominal aorta according to a protocol known in the art. Briefly, after sedation and preparation, the aorta was approached through a midline laparotomy. The infrarenal aorta was dissected and the diameter was measured under physiologic blood pressure. A segment of infrarenal aorta was isolated and a 5 minute perfusion of this segment was performed through an arteriotomy at 100 mmHg with a solution containing type I porcine pancreatic elastase (PPE 0.16 U/mL). All of the experiments were performed with a single PPE preparation derived from the same commercial source and lot.
Following aortic perfusion the arteriotomy was repaired, the laparotomy was closed and the animal was allowed to completely recover before returning to its standard housing.
Following aortic perfusion, animals were placed into one of 5 treatment groups. […] Three different doses of the agent were used, 50 mg/kg/day (n=17), 125 mg/kg/day (n=17), and 250 mg/kg/day (n=18). There were two mice in each group which died following aortic perfusion, and all others were available for analysis. Control animals (n=18) were similarly treated with daily gavage of the Cremophor diluent only. Of these mice, 16 survived the two weeks following aortic perfusion and underwent final aortic measurements and harvest. […] In this group, 4 mice died prior to the two week harvest, and all others were used in the analysis of aneurysm growth.
Two weeks following elastase perfusion, the mice were again anesthetized; the laparotomy incision was reopened and the final aortic diameter was measured in vivo prior to sacrifice. The animals were humanely sacrificed, and circulating blood and the entire perfused segment of aorta was harvested for RNA extraction, protein extraction or histology.
The aortas from several mice from each experimental group were perfusion fixed with 10% neutral-buffered formalin, removed, and placed in additional formalin for a minimum of 24 hours prior to processing for paraffin embedding. Following paraffin embedding, aortic specimens were cut into 5 μm sections and mounted on glass slides. Each specimen was stained with hematoxylin and eosin to evaluate inflammatory cell infiltration and Accustain® Elastic Stain kit to assess the degree of elastin degradation. Photomicrographs of serial sections were obtained using an Olympus BX60 light microscope equipped with CV12 video capture camera. […]

[3] = molecular target: TACE (TNF-alpha converting enzyme, ADAM-17) (Homo sapiens, UniProt P78536); assay: In vitro metalloprotease inhibition, TACE; assay type: biochemical
Description: as §1

[4] = molecular target: MMP-8 (Neutrophil collagenase) (Homo sapiens, UniProt P22894); assay: In vitro metalloprotease inhibition, MMP-8; assay type: biochemical
[5] = molecular target: T2, MMP-2 (72 kDa gelatinase, gelatinase A) (Homo sapiens, UniProt P08253); assay: In vitro metalloprotease inhibition, MMP-2; assay type: biochemical
T2 sequence (P08253 110-660): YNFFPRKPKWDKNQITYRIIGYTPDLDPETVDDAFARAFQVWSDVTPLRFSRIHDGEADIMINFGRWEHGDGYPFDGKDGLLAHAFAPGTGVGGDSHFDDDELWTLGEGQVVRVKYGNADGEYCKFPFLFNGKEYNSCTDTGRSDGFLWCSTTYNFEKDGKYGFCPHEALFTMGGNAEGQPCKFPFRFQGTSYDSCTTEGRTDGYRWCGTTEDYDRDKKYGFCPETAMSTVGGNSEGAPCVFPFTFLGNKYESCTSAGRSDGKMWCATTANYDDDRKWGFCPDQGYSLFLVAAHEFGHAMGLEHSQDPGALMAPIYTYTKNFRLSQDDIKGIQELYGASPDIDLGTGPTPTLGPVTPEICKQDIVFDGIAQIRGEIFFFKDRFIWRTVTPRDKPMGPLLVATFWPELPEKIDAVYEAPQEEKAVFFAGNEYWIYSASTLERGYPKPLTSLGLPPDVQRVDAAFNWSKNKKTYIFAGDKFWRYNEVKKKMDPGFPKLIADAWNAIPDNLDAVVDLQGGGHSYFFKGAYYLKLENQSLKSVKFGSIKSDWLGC

[6] = molecular target: MMP-9 (92 kDa gelatinase, gelatinase B) (Homo sapiens, UniProt P14780); assay: In vitro metalloprotease inhibition, MMP-9; assay type: biochemical
MMP-13 (collagenase-3) = MMP-13 (collagenase-3) (Homo sapiens, UniProt P45452); assay: In vitro metalloprotease inhibition, MMP-13; assay type: biochemical
ADAM-10 = molecular target: T3, ADAM-10 (UniProt O14672); assay: ADAM-10 enzyme assay, cleavage of fluorogenic 10-residue peptide; details: read-out: IC50 ADAM-10; in vitro
T3 sequence (O14672 1-748): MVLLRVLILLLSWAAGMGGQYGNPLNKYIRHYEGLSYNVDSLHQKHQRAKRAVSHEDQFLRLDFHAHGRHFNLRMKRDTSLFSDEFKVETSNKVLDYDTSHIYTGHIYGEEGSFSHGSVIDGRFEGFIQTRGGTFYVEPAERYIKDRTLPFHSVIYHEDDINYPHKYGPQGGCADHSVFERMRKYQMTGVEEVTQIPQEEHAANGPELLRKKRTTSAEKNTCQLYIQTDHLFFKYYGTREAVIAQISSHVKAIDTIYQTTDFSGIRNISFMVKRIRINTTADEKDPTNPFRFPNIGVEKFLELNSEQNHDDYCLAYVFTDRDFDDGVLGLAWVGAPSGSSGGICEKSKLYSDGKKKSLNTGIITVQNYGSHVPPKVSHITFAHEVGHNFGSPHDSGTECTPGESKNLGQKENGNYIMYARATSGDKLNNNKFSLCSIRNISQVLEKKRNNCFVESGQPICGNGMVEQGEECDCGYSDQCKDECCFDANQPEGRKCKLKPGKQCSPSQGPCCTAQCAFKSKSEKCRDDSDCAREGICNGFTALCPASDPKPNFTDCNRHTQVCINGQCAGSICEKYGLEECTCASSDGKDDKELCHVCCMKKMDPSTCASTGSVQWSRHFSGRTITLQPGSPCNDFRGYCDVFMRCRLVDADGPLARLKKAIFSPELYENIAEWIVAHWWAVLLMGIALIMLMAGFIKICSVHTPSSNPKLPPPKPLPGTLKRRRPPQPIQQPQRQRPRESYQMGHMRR
Description: mADAM-10 or hADAM-10 activity was measured as the ability to cleave a 10-residue peptide (DABCYL-Leu-Leu-Ala-Gln-Lys-*-Leu-Arg-Ser-Ser-Arg-EDANS). […] Enzyme was diluted to a final active concentration of 5 nM in Buffer A (50 mM HEPES 8.0, 100 mM NaCl, 1 mM CaCl2 and 0.01% NP-40). Serial dilutions for compounds were performed ranging from 100 μM to 0.5 nM using a Beckman Biomek 2000 in polypropylene plates (Greiner). 20 μl of enzyme solution was added to 10 μl of compound in buffer A, and allowed to incubate for 15 min in 384 well black, Greiner, microtiter plates (#781076). 20 μl of substrate (12.5 μM in Buffer A) was then added, resulting in final reaction conditions of 2 nM ADAM-10, 5 μM substrate, and compound concentrations ranging from 20 uM to 0.1 nM. The reaction was incubated for 2 hr at RT, and fluorescence was measured at Ex355, Em460 on a Wallac Victor 2 fluorescence reader. […] This reaction was incubated for 16 hr at RT and fluorescence was read using identical conditions.

Sequence of MMP-3 (Stromelysin-1) (P08254 100-477, species assumed): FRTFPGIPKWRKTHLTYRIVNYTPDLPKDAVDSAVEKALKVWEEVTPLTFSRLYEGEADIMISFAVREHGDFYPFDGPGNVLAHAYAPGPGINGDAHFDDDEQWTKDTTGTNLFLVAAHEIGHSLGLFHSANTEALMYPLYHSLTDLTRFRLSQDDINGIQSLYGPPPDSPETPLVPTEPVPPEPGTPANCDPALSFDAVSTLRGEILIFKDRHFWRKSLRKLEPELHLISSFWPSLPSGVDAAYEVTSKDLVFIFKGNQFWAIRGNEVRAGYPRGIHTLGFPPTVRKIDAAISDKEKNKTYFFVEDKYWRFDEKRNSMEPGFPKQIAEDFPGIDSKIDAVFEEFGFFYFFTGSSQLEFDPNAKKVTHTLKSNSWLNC
Sequence of TACE (TNF-alpha converting enzyme, ADAM-17) (P78536 215-824): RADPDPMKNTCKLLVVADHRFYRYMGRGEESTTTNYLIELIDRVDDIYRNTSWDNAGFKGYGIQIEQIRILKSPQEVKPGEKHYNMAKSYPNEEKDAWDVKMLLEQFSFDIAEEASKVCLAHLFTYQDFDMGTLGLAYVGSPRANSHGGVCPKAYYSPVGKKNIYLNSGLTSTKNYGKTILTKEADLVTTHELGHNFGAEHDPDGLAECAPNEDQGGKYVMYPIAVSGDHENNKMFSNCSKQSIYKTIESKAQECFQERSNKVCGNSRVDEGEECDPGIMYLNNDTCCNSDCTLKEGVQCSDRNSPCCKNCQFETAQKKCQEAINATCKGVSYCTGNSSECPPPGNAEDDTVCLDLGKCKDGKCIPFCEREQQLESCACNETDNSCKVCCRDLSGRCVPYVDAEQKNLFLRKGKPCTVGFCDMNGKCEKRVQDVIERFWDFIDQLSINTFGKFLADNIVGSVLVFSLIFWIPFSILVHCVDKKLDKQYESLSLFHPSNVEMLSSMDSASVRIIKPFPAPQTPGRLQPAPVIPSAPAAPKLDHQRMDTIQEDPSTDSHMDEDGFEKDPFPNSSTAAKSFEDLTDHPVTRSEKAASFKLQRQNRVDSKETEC
Sequence of MMP-8 (Neutrophil collagenase) (P22894 101-467, species assumed): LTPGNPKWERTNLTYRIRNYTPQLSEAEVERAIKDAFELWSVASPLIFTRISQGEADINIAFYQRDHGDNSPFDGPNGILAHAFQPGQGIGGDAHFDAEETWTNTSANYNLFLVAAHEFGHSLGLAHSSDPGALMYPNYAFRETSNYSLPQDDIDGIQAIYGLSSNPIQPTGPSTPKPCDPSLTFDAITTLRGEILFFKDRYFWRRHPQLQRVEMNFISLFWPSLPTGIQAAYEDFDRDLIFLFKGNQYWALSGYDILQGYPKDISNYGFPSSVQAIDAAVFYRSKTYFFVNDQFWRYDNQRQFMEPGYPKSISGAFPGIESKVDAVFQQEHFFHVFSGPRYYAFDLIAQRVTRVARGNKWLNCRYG
Sequence of MMP-9 (92 kDa gelatinase, gelatinase B) (P14780 94-707, species assumed): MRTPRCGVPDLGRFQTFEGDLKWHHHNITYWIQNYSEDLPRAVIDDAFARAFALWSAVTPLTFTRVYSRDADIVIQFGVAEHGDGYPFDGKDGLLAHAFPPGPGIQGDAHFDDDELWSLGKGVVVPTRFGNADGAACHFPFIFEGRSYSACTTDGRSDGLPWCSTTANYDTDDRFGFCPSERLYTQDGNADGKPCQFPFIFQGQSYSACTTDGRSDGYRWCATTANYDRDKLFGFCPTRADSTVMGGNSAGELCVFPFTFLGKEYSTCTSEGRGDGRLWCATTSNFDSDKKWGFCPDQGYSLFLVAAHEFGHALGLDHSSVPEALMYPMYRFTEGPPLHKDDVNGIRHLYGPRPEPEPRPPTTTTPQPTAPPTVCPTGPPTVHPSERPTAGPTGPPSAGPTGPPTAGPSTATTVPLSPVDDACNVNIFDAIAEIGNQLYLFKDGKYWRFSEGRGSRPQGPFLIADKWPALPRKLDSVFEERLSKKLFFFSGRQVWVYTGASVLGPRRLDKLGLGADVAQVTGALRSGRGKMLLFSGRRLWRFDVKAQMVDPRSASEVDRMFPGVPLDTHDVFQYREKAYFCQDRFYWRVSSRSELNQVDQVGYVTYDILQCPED

Row | Compound | IC50 (MMP-3 (Stromelysin-1)) [nM] | IC50 [1] [nM] | animals which did not develop aneurysms (% ΔAD not greater than 100%) ([2]; mice, 250 mg/kg/day daily gavage, 2 weeks, not statistically different than controls) [%] | aortic histology: degree of elastin damage and inflammatory cell inflammation ([2]; mice, 50, 125, 250 mg/kg/day daily gavage, aorta at harvest, H&E and VVG stain) | aortic diameters at harvest versus control animals ([2]; mice, all doses (50, 125, 250 mg/kg/day), 2 weeks) | maximal diameters (% ΔAD) of all animals ([2]; mice, low and intermediate dose groups (50 and 125 mg/kg/day), 2 weeks) | IC50 [3] [nM] | IC50 [4] [nM] | IC50 [5] [nM] | IC50 [6] [nM] | IC50 (MMP-13 (collagenase-3)) [nM] | IC50 (ADAM-10) [nM]
1 | COCCOC(=O)N1CCN(S(=O)(=O)c2cc(F)c(Oc3ccc(Cl)cc3)c(F)c2)[C@@H](C(=O)NO)C1 [Entry 15] | 50 to 1000 | 1000 to 20000 | 12 | inversely correlated with the dose of the agent administered | significantly smaller than control animals | greater than 100% | 50 to 1000 |  |  |  |  | 
2 | O=C(NO)[C@H]1CN(C(=O)N2CCOCC2)CCN1S(=O)(=O)c1cc(F)c(Oc2ccc(Cl)cc2)c(F)c1 [Entry 30] | 50 to 1000 | 1000 to 20000 |  |  |  |  | 50 to 1000 | < 50 | < 50 | 50 to 1000 | < 50 | 
3 | O=C(NO)[C@H]1CN(C(=O)c2cc(F)c(O)c(F)c2)CCN1S(=O)(=O)c1cc(F)c(Oc2ccc(Cl)cc2)c(F)c1 [Entry 41] | < 50 | 1000 to 20000 |  |  |  |  |  |  | < 50 |  | < 50 | < 50

— patent publication US20120270884A1, “Methods of Treating Aneurysmal Dilatation, Blood Vessel Wall Weakness and Specifically Abdominal Aortic and Thoracic Aneurysm Using Matrix Metalloprotease-2 Inhibitors” (SYMPHONY EVOLUTION, INC., priority 2009, published 2012)
